# Results from PMC6131557, “Selective Cytotoxicity of Dihydroorotate Dehydrogenase Inhibitors to Human Cancer Cells Under Hypoxia and Nutrient-Deprived Conditions” (Frontiers in Pharmacology, 2018).
# Like-named read-outs stand apart in the source and are kept apart here.
# Columns and labels:
# DU-145 = experiment: 39-cancer cell panel assay: DU-145; format: cell-based; conditions: Homo sapiens, Pro
# MDA-MB-231 = experiment: 39-cancer cell panel assay: MDA-MB-231; format: cell-based; conditions: Homo sapiens, Br
# St-4 = experiment: 39-cancer cell panel assay: St-4; format: cell-based; conditions: Homo sapiens
# SNB-75 = experiment: 39-cancer cell panel assay: SNB-75; format: cell-based; conditions: Homo sapiens, CNS
# OVCAR-3 = experiment: 39-cancer cell panel assay: OVCAR-3; format: cell-based; conditions: Homo sapiens, Ov
# KM-12 = experiment: 39-cancer cell panel assay: KM-12; format: cell-based, human; conditions: Co
# HCC2998 = experiment: 39-cancer cell panel assay: HCC2998; format: cell-based; conditions: Homo sapiens, HCC 2998, Co
# LOX-IMVI = experiment: 39-cancer cell panel assay: LOX-IMVI; format: cell-based; conditions: Homo sapiens, Me
# MKN45 = experiment: 39-cancer cell panel assay: MKN45; format: cell-based; conditions: Homo sapiens, MKN-45, St
# DMS273 = experiment: 39-cancer cell panel assay: DMS273; format: cell-based; conditions: Homo sapiens, DMS-273, Lu
# U251 = experiment: 39-cancer cell panel assay: U251; format: cell-based; conditions: Homo sapiens, U-251, CNS
# NCI-H23 = experiment: 39-cancer cell panel assay: NCI-H23; format: cell-based; conditions: Homo sapiens, Lu
# MKN28 = experiment: 39-cancer cell panel assay: MKN28; format: cell-based; conditions: Homo sapiens, MKN-28, St
# MKN7 = experiment: 39-cancer cell panel assay: MKN7; format: cell-based; conditions: Homo sapiens, MKN-7, St
# RXF-631L = experiment: 39-cancer cell panel assay: RXF-631L; format: cell-based; conditions: Homo sapiens, Re
# MKN1 = experiment: 39-cancer cell panel assay: MKN1; format: cell-based; conditions: Homo sapiens, MKN-1, St
# NCI-H226 = experiment: 39-cancer cell panel assay: NCI-H226; format: cell-based; conditions: Homo sapiens, Lu
# HCT-15 = experiment: 39-cancer cell panel assay: HCT-15; format: cell-based; conditions: Homo sapiens, Co
# MKN74 = experiment: 39-cancer cell panel assay: MKN74; format: cell-based; conditions: Homo sapiens, MKN-74, St
# SF-268 = experiment: 39-cancer cell panel assay: SF-268; format: cell-based; conditions: Homo sapiens, CNS
# PC-3 = experiment: 39-cancer cell panel assay: PC-3; format: cell-based; conditions: Homo sapiens, Pro
# SF-539 = experiment: 39-cancer cell panel assay: SF-539; format: cell-based; conditions: Homo sapiens, CNS
# HT-29 = experiment: 39-cancer cell panel assay: HT-29; format: cell-based; conditions: Homo sapiens, Co
# OVCAR-8 = experiment: 39-cancer cell panel assay: OVCAR-8; format: cell-based; conditions: Homo sapiens, Ov
# DMS114 = experiment: 39-cancer cell panel assay: DMS114; format: cell-based; conditions: Homo sapiens, DMS-114, Lu
# NCI-H522 = experiment: 39-cancer cell panel assay: NCI-H522; format: cell-based; conditions: Homo sapiens, Lu
# A549 = experiment: 39-cancer cell panel assay: A549; format: cell-based; conditions: Homo sapiens, Lu
# OVCAR-4 = experiment: 39-cancer cell panel assay: OVCAR-4; format: cell-based; conditions: Homo sapiens, Ov
# [1] = target: T1, human dihydroorotate dehydrogenase (HsDHODH) (Homo sapiens, UniProt Q02127); experiment: Inhibition of recombinant human DHODH enzyme activity; format: biochemical; conditions: recombinant human DHODH; purified enzyme fixed at 10 nM; read-out: IC50 (nM), inhibition of human DHODH
# T1 construct: made in house
# SK-OV-3 = experiment: 39-cancer cell panel assay: SK-OV-3; format: cell-based; conditions: Homo sapiens
# HCT-116 = experiment: 39-cancer cell panel assay: HCT-116; format: cell-based; conditions: Homo sapiens, Co
# SNB-78 = experiment: 39-cancer cell panel assay: SNB-78; format: cell-based; conditions: Homo sapiens, CNS
# MCF-7 = experiment: 39-cancer cell panel assay: MCF-7; format: cell-based; conditions: Homo sapiens, MCF7, Br
# HBC-4 = experiment: 39-cancer cell panel assay: HBC-4; format: cell-based; conditions: Homo sapiens, HBC4, Br
# ACHN = experiment: 39-cancer cell panel assay: ACHN; format: cell-based; conditions: Homo sapiens, Re
# NCI-H460 = experiment: 39-cancer cell panel assay: NCI-H460; format: cell-based; conditions: Homo sapiens, Lu
# SF-295 = experiment: 39-cancer cell panel assay: SF-295; format: cell-based; conditions: Homo sapiens, CNS
# HBC-5 = experiment: 39-cancer cell panel assay: HBC-5; format: cell-based; conditions: Homo sapiens, HBC5, Br
# OVCAR-5 = experiment: 39-cancer cell panel assay: OVCAR-5; format: cell-based; conditions: Homo sapiens, Ov
# BSY-1 = experiment: 39-cancer cell panel assay: BSY-1; format: cell-based; conditions: Homo sapiens, Br
# HDF cells = experiment: Cytotoxicity assay (Cell Counting Kit-8 / WST-8) on HDF cells; format: cell-based; conditions: Homo sapiens
# Method: (§1) For hypoxia and nutrient-deprived culture conditions, cells were incubated under 1% oxygen in glucose and glutamine-free DMEM (Gibco) without FBS.
# (§2) DLD-1 or HDF cells were seeded at 2.5 × 10^4 cells/well on a 96-well plate with normal medium, and cultured overnight under normal culture condition. The cells were washed with PBS and the medium was replaced to either normal medium or glucose and glutamine-free DMEM without FBS. Test compounds or DMSO as a control were added to the wells. The cells in normal medium were cultured under normal culture conditions, while cells in nutrient-deprived medium were cultured under hypoxia condition. After 24 or 48 h incubation, the cells were washed with PBS, 100 μl of fresh normal medium, and 10 μl of Cell Counting Kit-8 solution (Donjindo, Japan) was added to each well. After 3 h incubation under normal culture condition, the absorbance was measured at 450 nm using SpectraMax M2e-TUY microplate reader (Molecular Devices). Cell viability of test wells was calculated based on absorbance of control wells containing DMSO according to manufacturer’s protocol.
# Complex III = target: T2, Complex III (Bos taurus, UniProt P00157); experiment: Quinol oxidase (complex III) activity, bovine mitochondria; format: biochemical; conditions: ubiquinol oxidase activity
# T2 construct: from tissue; host or cells: bovine mitochondrial fraction / sub-mitochondrial particles
# Complex II–III = experiment: Succinate-cytochrome c reductase (complexes II–III) activity, bovine mitochondria; format: biochemical
# Method: (§3) Recombinant human DHODH was purified, crystallized, and assayed as previously described ([Inaoka et al., 2016]) without modification. Bovine mitochondrial fractions were prepared as previously described ([Kita et al., 1988]) and NADH dehydrogenase (complex I), succinate:quinone reductase (complex II), quinol oxidase (complexes III–IV), NADH-cytochrome c reductase (complexes I–III), and succinate-cytochrome c (complexes II–III) activities were assayed following an established method ([Takamiya et al., 1986]; [Miyadera et al., 2001]; [Matsumoto et al., 2008]; [Kido et al., 2010]; [Nihashi et al., 2017]).
# Complex II = target: T3, Complex II (Bos taurus, UniProt P35720+Q3T189+Q95123); experiment: Succinate:quinone reductase (complex II) activity, bovine mitochondria; format: biochemical
# T3 construct: from tissue; host or cells: bovine mitochondrial fraction / sub-mitochondrial particles
# Complex I = experiment: NADH dehydrogenase (complex I) activity, bovine mitochondria; format: biochemical; conditions: at 5 μM
# Method: as §3
# Complexes I–III = experiment: NADH-cytochrome c reductase (complexes I–III) activity, bovine mitochondria; format: biochemical
# Method: as §3
# DLD-1 cells = experiment: Cytotoxicity assay (Cell Counting Kit-8 / WST-8) on DLD-1 cells; format: cell-based, human; conditions: Homo sapiens
# Method: as §1, §2
# T1 sequence (Q02127 whole entry): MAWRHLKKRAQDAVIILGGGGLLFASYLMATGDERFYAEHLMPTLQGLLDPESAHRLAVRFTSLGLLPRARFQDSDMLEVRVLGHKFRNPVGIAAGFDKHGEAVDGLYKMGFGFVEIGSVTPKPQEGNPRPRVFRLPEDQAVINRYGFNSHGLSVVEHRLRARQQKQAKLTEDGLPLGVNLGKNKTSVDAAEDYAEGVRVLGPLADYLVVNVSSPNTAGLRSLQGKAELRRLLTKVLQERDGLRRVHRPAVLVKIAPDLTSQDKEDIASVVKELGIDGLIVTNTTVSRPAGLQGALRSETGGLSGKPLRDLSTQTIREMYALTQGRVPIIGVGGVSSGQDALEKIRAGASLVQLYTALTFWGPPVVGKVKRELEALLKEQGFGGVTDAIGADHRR
# T3 sequence (P31039 45-665 partner limits assumed): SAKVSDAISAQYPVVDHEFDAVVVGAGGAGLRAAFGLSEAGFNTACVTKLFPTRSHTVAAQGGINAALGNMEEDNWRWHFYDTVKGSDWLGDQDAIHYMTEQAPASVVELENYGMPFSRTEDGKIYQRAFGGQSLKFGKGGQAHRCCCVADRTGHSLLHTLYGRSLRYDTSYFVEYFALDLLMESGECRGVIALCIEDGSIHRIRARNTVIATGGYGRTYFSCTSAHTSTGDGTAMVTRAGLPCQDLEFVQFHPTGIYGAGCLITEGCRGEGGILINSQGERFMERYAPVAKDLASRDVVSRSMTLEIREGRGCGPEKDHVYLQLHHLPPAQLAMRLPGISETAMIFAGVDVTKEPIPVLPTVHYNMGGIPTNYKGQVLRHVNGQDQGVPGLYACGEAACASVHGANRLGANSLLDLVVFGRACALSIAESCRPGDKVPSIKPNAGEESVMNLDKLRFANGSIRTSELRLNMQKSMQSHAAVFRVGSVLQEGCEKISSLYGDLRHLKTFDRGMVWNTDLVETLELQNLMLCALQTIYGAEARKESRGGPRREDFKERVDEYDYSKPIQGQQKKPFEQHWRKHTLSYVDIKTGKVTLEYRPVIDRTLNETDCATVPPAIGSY
# T3 sequence (Q3T189 29-280): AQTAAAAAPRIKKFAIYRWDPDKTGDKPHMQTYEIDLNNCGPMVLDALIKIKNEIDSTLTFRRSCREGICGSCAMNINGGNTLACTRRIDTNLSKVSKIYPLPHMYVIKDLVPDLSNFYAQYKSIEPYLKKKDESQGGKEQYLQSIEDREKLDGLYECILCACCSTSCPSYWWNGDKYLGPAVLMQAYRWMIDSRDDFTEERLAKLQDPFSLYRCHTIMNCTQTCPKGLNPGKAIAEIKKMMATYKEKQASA
# T3 sequence (P35720 30-169): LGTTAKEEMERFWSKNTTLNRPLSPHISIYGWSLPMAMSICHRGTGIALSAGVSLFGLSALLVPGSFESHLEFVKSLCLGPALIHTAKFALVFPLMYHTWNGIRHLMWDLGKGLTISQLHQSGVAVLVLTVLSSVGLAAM
# T3 sequence (Q95123 56-158): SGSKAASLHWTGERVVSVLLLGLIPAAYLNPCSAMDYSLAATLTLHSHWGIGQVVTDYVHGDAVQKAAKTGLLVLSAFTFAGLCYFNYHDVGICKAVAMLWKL
structure (smiles),measurement,setting,value
C/C(=C\Cc1c(O)c(Cl)c(C)c(C=O)c1O)CC/C=C(\C)C(C)O (stereo not shown) [Compound 6],GI50,DU-145,25 µM
same,GI50,MDA-MB-231,36 µM
same,GI50,St-4,44 µM
same,GI50,SNB-75,59 µM
same,GI50,OVCAR-3,27 µM
same,GI50 (μM) KM-12,KM-12,32.0 µM
same,GI50,HCC2998,43 µM
same,GI50,LOX-IMVI,13 µM
same,GI50,MKN45,65 µM
same,GI50,DMS273,18 µM
same,GI50,U251,5.1 µM
same,GI50,NCI-H23,39 µM
same,GI50,MKN28,36 µM
same,GI50,MKN7,36 µM
same,GI50,RXF-631L,45 µM
same,GI50,MKN1,44 µM
same,GI50,NCI-H226,24 µM
same,GI50,HCT-15,6.2 µM
same,GI50,MKN74,26 µM
same,GI50,SF-268,12 µM
same,GI50,PC-3,22 µM
same,GI50,SF-539,5.3 µM
same,GI50,HT-29,39 µM
same,GI50,OVCAR-8,25 µM
same,GI50,DMS114,35 µM
same,GI50,NCI-H522,22 µM
same,GI50,A549,37 µM
same,GI50,OVCAR-4,39 µM
same,IC50,[1],63.9 ± 11 nM
same,GI50,SK-OV-3,27 µM
same,GI50,HCT-116,14 µM
same,GI50,SNB-78,43 µM
same,GI50,MCF-7,36 µM
same,GI50,HBC-4,37 µM
same,GI50,ACHN,22 µM
same,GI50,NCI-H460,12 µM
same,GI50,SF-295,16 µM
same,GI50,HBC-5,61 µM
same,GI50,OVCAR-5,58 µM
same,GI50,BSY-1,59 µM
CC(=O)OC(C)/C(C)=C/CC/C(C)=C/Cc1c(O)c(Cl)c(C)c(C=O)c1O (stereo not shown) [Compound 7],IC50,"HDF cells; read-out: IC50 (μM) HDF (24 h) Hypoxia nutrient (-), hypoxia (1% oxygen), nutrient (-)",3.4 ± 0.36 µM
same,IC50,"HDF cells; read-out: IC50 (μM) HDF (24 h) Normoxia nutrient (+), normoxia, nutrient (+)",> 100 µM
same,GI50,DU-145,14 µM
same,GI50,MDA-MB-231,11 µM
same,GI50,St-4,13 µM
same,inhibition at 5 µM,Complex III,> 80%
same,IC50,Complex II–III,2.3 ± 0.16 µM
same,GI50,SNB-75,22 µM
same,GI50,OVCAR-3,13 µM
same,GI50 (μM) KM-12,KM-12,5.7 µM
same,GI50,HCC2998,13 µM
same,GI50,LOX-IMVI,1.5 µM
same,GI50,MKN45,20 µM
same,GI50,DMS273,0.91 µM
same,GI50,U251,1.5 µM
same,inhibition at 5 µM,Complex II,3.2 ± 6.7%
same,GI50,NCI-H23,15 µM
same,GI50,MKN28,11 µM
same,GI50,MKN7,16 µM
same,GI50,RXF-631L,7.5 µM
same,GI50,MKN1,16 µM
same,Inhibition (%) Complex I,Complex I,15 ± 2.3%
same,GI50,NCI-H226,11 µM
same,GI50,HCT-15,0.58 µM
same,GI50,MKN74,11 µM
same,GI50,SF-268,5 µM
same,GI50,PC-3,15 µM
same,GI50,SF-539,0.27 µM
same,GI50,HT-29,3.2 µM
same,GI50,OVCAR-8,8.8 µM
same,GI50,DMS114,14 µM
same,GI50,NCI-H522,4.9 µM
same,GI50,A549,3.3 µM
same,GI50,OVCAR-4,27 µM
same,IC50,[1],6.4 ± 0.2 nM
same,GI50,SK-OV-3,12 µM
same,IC50,Complexes I–III,0.46 ± 0.01 µM
same,GI50,HCT-116,1.5 µM
same,GI50,SNB-78,21 µM
same,GI50,MCF-7,4.9 µM
same,GI50,HBC-4,5 µM
same,GI50,ACHN,9.9 µM
same,IC50,"DLD-1 cells; read-out: IC50 (μM) DLD-1 (24 h) Hypoxia nutrient (-), DLD-1, 24 h, hypoxia (1% oxygen), nutrient (-)",2 ± 0.19 µM
same,IC50,"DLD-1 cells; read-out: IC50 (μM) DLD-1 (24 h) Normoxia nutrient (+), DLD-1, 24 h, normoxia, nutrient (+)",> 100 µM
same,IC50,"DLD-1 cells; DLD-1, 48 h, hypoxia (1% oxygen), nutrient (-), read-out: IC50 (μM) DLD-1 (48 h) Hypoxia nutrient (-)",0.95 ± 0.059 µM
same,IC50,"DLD-1 cells; DLD-1, 48 h, normoxia, nutrient (+), read-out: IC50 (μM) DLD-1 (48 h) Normoxia nutrient (+)",> 100 µM
same,GI50,NCI-H460,0.94 µM
same,GI50,SF-295,8 µM
same,GI50,HBC-5,25 µM
same,GI50,OVCAR-5,18 µM
same,GI50,BSY-1,20 µM
